pIC50: −log10 of the molar value.
Columns and labels:
hERG = hERG (Homo sapiens (Human), UniProt Q12809); assay: hERG assay 1 (standard), SyncroPatch 384PE; assay type: cell-based; conditions: CHO cells, room temperature, up to 40 uM
Summary of the method: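 Automated patch clamp on hERG-expressing CHO-K1 cells at room temperature, +60/−40 mV protocol every 15 s. Six-point cumulative concentrations 139 nM to 40 uM (0.33% DMSO final); IC50 from one-site fit of % inhibition. Wells required ≥30 MegaOhm seal, current >0.2 nA, Z prime >0.4.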

[1] = Caco-2 cell monolayers intrinsic permeation assay in the presence of efflux inhibitors; assay type: in vitro ADME; conditions: Caco-2, with efflux inhibitors
Description: Caco-2 cells were obtained from American Type Culture Collection (ATCC). HEPES, penicillin, streptomycin, bovine serum albumin (BSA) were obtained from Beijing Xinjingke Biotechnology Co, Ltd. Fetal bovine serum, Hank's balanced salt solution (HBSS) and non-essential amino acids (NEAA) were purchased from Gibco. Dulbecco's Modified Eagle's Medium (DMEM) was purchased from Corning and MES from Sigma. HTS Transwell-24 permeable supports were purchased from Corning. Zosuquidar and Ko-143 were obtained from MedChemExpress and Benzbromarone from Sigma.
The Caco-2 cell culture medium consisted of DMEM with high glucose and L-glutamine supplemented with 10% FBS, 0.1 mg/mL streptomycin, 100 units of penicillin, 0.6 mg/mL kanamycin sulfate and 1×NEAA. […] culture medium was added to each Transwell insert with 800 mL added to each well of the reservoir. After incubation at 37° C. in 5% CO2 for 1 hour, the plates were ready for seeding.
The cells were cultivated in T-75 flasks at 37° C., 5% CO2, 95% relative humidity. At 80 to 90% confluence, cells were treated with trypsin/EDTA treatment until they became detached. The trypsin/EDTA was inactivated by adding excess serum containing medium. The cell suspension was centrifuged at 120 g for 10 minutes followed by resuspension of the cell pellet in seeding medium at a cell density of 7.92×10^5 cells/mL.
[…] of the resulting cell suspension was added to each well of the Transwell plate and incubated for 14 to 18 days, with medium replaced every other day. After incubation for 14 to 18 days, the cells should have reached confluence and should be tested for electrical resistance using a Millicel Epithelial Volt-Ohm measuring system (Millipore).
The cell monolayers were washed twice with pre-warmed HBSS and incubated at 37° C. for 30 minutes under gentle shaking (480 rpm).
The compound under test was presented as a 10 mM DMSO stock solution. 2 mL of the 10 mM stock was added to 8 mL DMSO to produce a 2 mM stock. 2 mL was added to 398 mL of HBSS containing 10 mM Zosuquidar, 30 mM Benzbromarone and 2 mM KO-143 to make a […] solution.
210 mL of the test compound solution was added to the apical compartment of the Transwell plate, with a 10 mL sample taken to act as the time 0 sample. The wells of the receiver (basolateral) compartment were filled with 800 mL HBSS (containing the efflux inhibitors). The plates were incubated at 37° C. with shaking at 480 rpm for 120 minutes with sampling at 45 and 120 minutes.
At each sampling time (0, 45 and 120 minutes) 10 mL was removed from the apical compartment and add to 90 mL (HBSS containing the efflux inhibitors). 100 mL was removed from each basolateral compartment. 3 volumes of cold acetonitrile containing internal standard was added to each sample and vortex mixed for 10 minutes at 100 rpm. Samples were then centrifuged at 400 rpm for 20 minutes. 50 mL of the supernatant was taken for LC/MS/MS analysis to determine compound concentration.
The apparent permeability (Papp), in units of centimetre per second, were calculated for Caco-2 drug transport using the following equation: […]
Where CR is the concentration of compound in the receiver side at the respective time point, CD is the concentration of compound in the donor side at the respective timepoint. Area is the surface area of the membrane and time is 4500 seconds (75×60 seconds).

Sequence of hERG (Q12809 whole entry): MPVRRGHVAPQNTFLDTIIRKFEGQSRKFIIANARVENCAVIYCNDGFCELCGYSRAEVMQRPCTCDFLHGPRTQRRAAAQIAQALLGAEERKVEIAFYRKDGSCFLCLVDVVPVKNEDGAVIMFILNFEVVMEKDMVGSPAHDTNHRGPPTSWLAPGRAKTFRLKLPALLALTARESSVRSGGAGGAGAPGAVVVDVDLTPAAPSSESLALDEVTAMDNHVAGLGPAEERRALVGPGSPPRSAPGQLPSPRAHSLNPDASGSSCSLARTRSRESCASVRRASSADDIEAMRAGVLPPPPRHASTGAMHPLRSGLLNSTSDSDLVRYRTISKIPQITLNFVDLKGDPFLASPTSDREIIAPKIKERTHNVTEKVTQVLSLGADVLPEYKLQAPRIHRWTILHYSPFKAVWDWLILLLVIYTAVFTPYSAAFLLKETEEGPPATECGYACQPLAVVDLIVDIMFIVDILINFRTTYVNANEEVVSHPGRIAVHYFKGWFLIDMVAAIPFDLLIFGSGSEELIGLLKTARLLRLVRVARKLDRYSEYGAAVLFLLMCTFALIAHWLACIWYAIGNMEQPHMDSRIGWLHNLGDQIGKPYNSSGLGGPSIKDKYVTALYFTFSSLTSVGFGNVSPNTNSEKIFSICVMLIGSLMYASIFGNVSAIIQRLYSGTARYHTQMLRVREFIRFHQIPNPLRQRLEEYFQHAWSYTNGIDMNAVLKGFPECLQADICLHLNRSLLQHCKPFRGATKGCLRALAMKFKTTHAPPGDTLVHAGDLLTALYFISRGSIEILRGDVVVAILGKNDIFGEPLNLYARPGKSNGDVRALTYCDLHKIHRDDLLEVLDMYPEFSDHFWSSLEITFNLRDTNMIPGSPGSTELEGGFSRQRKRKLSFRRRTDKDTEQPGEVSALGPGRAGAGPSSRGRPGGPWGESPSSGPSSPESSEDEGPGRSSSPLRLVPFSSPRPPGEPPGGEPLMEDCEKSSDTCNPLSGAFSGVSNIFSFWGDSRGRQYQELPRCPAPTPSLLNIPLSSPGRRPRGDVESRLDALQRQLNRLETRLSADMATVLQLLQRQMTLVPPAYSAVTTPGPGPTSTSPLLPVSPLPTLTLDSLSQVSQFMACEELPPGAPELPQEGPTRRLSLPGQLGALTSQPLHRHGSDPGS

SMILES	pIC50 (hERG)	Papp A→B [1] [×10⁻⁶ cm/s]
COCCN(C)CCC[C@H](C(C)C)N1CCC(C(=O)c2cn(-c3ccc(F)cc3C(=O)N(C(C)C)C(C)C)c3cnccc23)CC1 (racemic) [Example 23, rac-(R)-5-Fluoro-N,N-diisopropyl-2-(3-(1-(6-((2-methoxyethyl)(methyl)amino)-2-methylhexan-3-yl)piperidine-4-carbonyl)-1H-pyrrolo[2,3-c]pyridin-1-yl)benzamide]	4.51	1.5
CCN(C(=O)c1cc(F)ccc1-n1c(C)c(C(=O)C2CCN(C(=O)[C@H]3NC[C@@H]4C[C@@H]43)CC2)c2ccncc21)C(C)C (single isomer, unassigned) [Example 48-1]	< 4.40	
Cc1c(C(=O)C2CCN(C(=O)[C@H]3NC[C@@H]4C[C@@H]43)CC2)c2ccncc2n1-c1ccc(F)cc1C(=O)N(CC(F)(F)F)C(C)C (single isomer, unassigned) [Example 51-1]	< 4.40	1.7
Cc1c(C(=O)C2CCN(C(=O)[C@H]3NC[C@@H]4C[C@@H]43)CC2)c2ccncc2n1-c1ccc(F)cc1C(=O)N(C(C)C)C(C)C (single isomer, unassigned) [Example 55-1]	< 4.40	3.7
Cc1c(C(=O)C2CCN(C(=O)[C@@H]3CCC(C)(C)N3)CC2)c2ccncc2n1-c1ccc(F)cc1C(=O)N(C(C)C)C(C)C (single isomer, unassigned) [Example 56-1]	< 4.40	2.8
Cc1c(C(=O)[C@@H]2CCN(C(=O)[C@@H]3CC[C@H](C)N3)[C@@H](C)C2)c2ccncc2n1-c1ccc(F)cc1C(=O)N(C(C)C)C(C)C (stereo in doubt) [Example 62, 5-Fluoro-N,N-diisopropyl-2-(2-methyl-3-((2S,4RS)-2-methyl-1-((2S,5S)-5-methylpyrrolidine-2-carbonyl)piperidine-4-carbonyl)-1H-pyrrolo[2,3-c]pyridin-1-yl)benzamide]	< 4.40	4.9
CCN(C(=O)c1cc(F)ccc1-n1c(C)c(C(=O)[C@@H]2CCN(C(=O)[C@@H]3CC[C@H](C)N3)[C@@H](C)C2)c2ccncc21)C(C)C (stereo in doubt) [Example 63, N-Ethyl-5-fluoro-N-isopropyl-2-(2-methyl-3-((2S,4RS)-2-methyl-1-((2S,5S)-5-methylpyrrolidine-2-carbonyl)piperidine-4-carbonyl)-1H-pyrrolo[2,3-c]pyridine-1-yl)benzamide]	< 4.40	1.5
CC(C)N(C(=O)c1cc(F)ccc1-n1cc(C(=O)C2CN(C(=O)[C@H]3NC4CCC3CC4)C2)c2ccncc21)C(C)C [Example 6, (S)-2-(3-(1-(2-Azabicyclo[2.2.2]octane-3-carbonyl)azetidine-3-carbonyl)-1H-pyrrolo[2,3-c]pyridin-1-yl)-5-fluoro-N,N-diisopropylbenzamide]		< 0.5
CC(C)c1ncsc1-c1cc(F)ccc1-n1cc(C(=O)C2CN(C(=O)[C@H]3N[C@@H]4CC[C@H]3C4)C2)c2ccncc21.O=CO [Example 12, (1-((1R,3S,4S)-2-Azabicyclo[2.2.1]heptane-3-carbonyl)azetidin-3-yl)(1-(4-fluoro-2-(4-isopropylthiazol-5-yl)phenyl)-1H-pyrrolo[2,3-c]pyridin-3-yl)methanone 1·formic acid]	< 4.40	1.6
C=C1C[C@@H]2CC[C@H]1[C@@H](C(=O)N1CCC(C(=O)c3cn(-c4ccc(F)cc4C(=O)N(C(C)C)C(C)C)c4cnccc34)CC1)N2 [Example 18, 5-Fluoro-N,N-diisopropyl-2-(3-(1-((1S,3S,4R)-5-methylene-2-azabicyclo[2.2.2]-octane-3-carbonyl)piperidine-4-carbonyl)-1H-pyrrolo[2,3-c]pyridin-1-yl)benzamide]	< 4.40	3.1
CC(C)N(C(=O)c1cc(F)ccc1-n1cc(C(=O)C2CCN(C(=O)[C@H]3NC[C@@H]4C[C@@H]43)CC2)c2ccncc21)C(C)C [Example 19, 2-(3-(1-((1S,2S,5R)-3-Azabicyclo[3.1.0]hexane-2-carbonyl)piperidine-4-carbonyl)-1H-pyrrolo[2,3-c]pyridin-1-yl)-5-fluoro-N,N-diisopropylbenzamide]	< 4.40	2.6
CC(C)N(C(=O)c1cc(F)ccc1-n1cc(C(=O)C2CCN(C(=O)[C@H]3NC4CCC3CC4)CC2)c2ccncc21)C(C)C [Example 20, (S)-2-(3-(1-(2-Azabicyclo[2.2.2]octane-3-carbonyl)piperidine-4-carbonyl)-1H-pyrrolo[2,3-c]pyridin-1-yl)-5-fluoro-N,N-diisopropylbenzamide]	< 4.40	0.8
CC(C)N(C(=O)c1cc(F)ccc1-n1cc(C(=O)C2CCN(C(=O)[C@H]3NC[C@@H]4CCC[C@@H]43)CC2)c2ccncc21)C(C)C [Example 21, 5-Fluoro-N,N-diisopropyl-2-(3-(1-((1S,3αR,6αS)-octahydrocyclopenta[c]pyrrole-1-carbonyl)piperidine-4-carbonyl)-1H-pyrrolo[2,3-c]pyridin-1-yl)benzamide]	< 4.40	1.7
CC(C)N(C(=O)c1cc(F)ccc1-n1cc(C(=O)C2CCN(C(=O)[C@H]3N[C@H]4C[C@@H]3[C@@H](F)C4)CC2)c2ccncc21)C(C)C [Example 22, 5-Fluoro-2-(3-(1-((1S,3S,4S,5S)-5-fluoro-2-azabicyclo[2.2.1]heptane-3-carbonyl)piperidine-4-carbonyl)-1H-pyrrolo[2,3-c]pyridin-1-yl)-N,N-diisopropylbenzamide]	< 4.40	3
CCN(C(=O)c1cc(F)ccc1-n1cc(C(=O)C2CCN(C(=O)[C@H]3NC[C@@H]4C[C@@H]43)CC2)c2ccncc21)C(C)C [Example 28, 2-(3-(1-((1S,2S,5R)-3-Azabicyclo[3.1.0]hexane-2-carbonyl)piperidine-4-carbonyl)-1H-pyrrolo[2,3-c]pyridin-1-yl)-N-ethyl-5-fluoro-N-isopropylbenzamide]	< 4.40	1.1
CCN(C(=O)c1cc(F)ccc1-n1cc(C(=O)C2CCN(C(=O)[C@H]3N[C@@H]4CC[C@H]3C4)CC2)c2ccncc21)C(C)C [Example 31, 2-(3-(1-((1R,3S,4S)-2-Azabicyclo[2.2.1]heptane-3-carbonyl)piperidine-4-carbonyl)-1H-pyrrolo[2,3-c]pyridin-1-yl)-N-ethyl-5-fluoro-N-isopropylbenzamide]	< 4.40	0.1
C[C@@H]1COC[C@@H](C)N1C(=O)c1cc(F)ccc1-n1cc(C(=O)C2CCN(C(=O)[C@H]3N[C@@H]4CC[C@H]3C4)CC2)c2ccncc21 [Example 34, (1-((1R,3S,4S)-2-Azabicyclo[2.2.1]heptane-3-carbonyl)piperidin-4-yl)(1-(2-((3R,5R)-3,5-dimethylmorpholine-4-carbonyl)-4-fluorophenyl)-1H-pyrrolo[2,3-c]pyridin-3-yl)methanone]	< 4.40	0.2
CC(C)n1nccc1-c1cc(F)ccc1-n1cc(C(=O)C2CCN(C(=O)[C@H]3N[C@@H]4CC[C@H]3C4)CC2)c2ccncc21 [Example 36, (1-((1R,3S,4S)-2-Azabicyclo[2.2.1]heptane-3-carbonyl)piperidin-4-yl)(1-(4-fluoro-2-(1-isopropyl-1H-pyrazol-5-yl)phenyl)-1H-pyrrolo[2,3-c]pyridin-3-yl)methanone]	< 4.40	0.6
CC(C)c1ncncc1-c1cc(F)ccc1-n1cc(C(=O)C2CCN(C(=O)[C@H]3N[C@@H]4CC[C@H]3C4)CC2)c2ccncc21 [Example 37, (1-((1R,3S,4S)-2-Azabicyclo[2.2.1]heptane-3-carbonyl)piperidin-4-yl)(1-(4-fluoro-2-(4-isopropylpyrimidin-5-yl)phenyl)-1H-pyrrolo[2,3-c]pyridin-3-yl)methanone]	< 4.40	1

Reference: patent US20240335431A1, “1-H-PYRROLO[2,3-c]PYRIDINE COMPOUNDS” (Acerta Pharma B.V., priority 2023, published 2024)
